# Experimental data: patent US20240376163A1, “PEPTIDE FOR INHIBITING CALCINEURIN AND USE THEREOF” (Seoul National University R&DB Foundation, priority 2023, published 2024)
# Test system: tNFATC2
# Test: Confocal microscopy of nuclear-localized tNFATC2 in Jurkat T cells
# Type: cell-based
# Details: activated Jurkat T cells
# Experimental: Jurkat T cells were transfected with pCAG-EGFP-tNFATC2-IRES-mCherry-peptide by electroporation. Two days later, these cells were pretreated with […] for 30 min. Afterwards, they were treated with 40 nM PMA and 1 μM ionomycin for 4 hours under culture conditions. Nuclei were stained by treating these cells with 10 μg/ml Hoechst 33342 (Invitrogen, Waltham, MA, USA) before imaging with a confocal laser scanning microscopy (Nikon, Tokyo, Japan). Colocalization analysis of […] and Hoechst was performed with ImageJ and corresponding plug-in JACoP to measure the Manders coefficient (Manders, E. M. et al., J. Cell Sci. 103, 857-862 (1992), Bolte, J. Microsc. 224, 213-232 (2006)).
row,Compound,proportion of nuclear-localized tNFATC2
1,PEITVTPPTP [CABIN1-L-1-2],slightly higher
2,"C=CC[C@@H]1/C=C(\C)C[C@H](C)C[C@H](OC)[C@H]2O[C@@](O)(C(=O)C(=O)N3CCCC[C@H]3C(=O)O[C@H](/C(C)=C/[C@@H]3CC[C@@H](O)[C@H](OC)C3)[C@H](C)[C@@H](O)CC1=O)[C@H](C)C[C@@H]2OC [FK506, Tacrolimus, reference compound]",lowest
